{"source": "paper PMC5218480", "about": "(PLoS ONE, 2017)", "system": "MV-4-11 cells", "experiment": "Gene expression microarray analysis (Affymetrix PrimeView) and GSEA", "format": "cell-based, human", "design": "RFU PODN (11730768_x_at) / Fold change /veh PODN (11730768_x_at) / RFU LINC00158 (11744669_a_at) / Fold change /veh LINC00158 (11744669_a_at) / RFU DUSP10 (11751237_a_at) / Fold change /veh DUSP10 (11751237_a_at) / RFU ID3 (11757404_x_at) / Fold change /veh ID3 (11757404_x_at) / RFU PLEKHG5 (11737974_s_at) / Fold change /veh PLEKHG5 (11737974_s_at) / RFU LRRC4B (11730491_at) / Fold change /veh LRRC4B (11730491_at) / RFU GIMAP4 (11747438_a_at) / Fold change /veh GIMAP4 (11747438_a_at) / RFU KRT8 (11758183_x_at) / Fold change /veh KRT8 (11758183_x_at) / RFU CNN1 (11734310_a_at) / Fold change /veh CNN1 (11734310_a_at) / RFU VPS37D (11726825_at) / Fold change /veh VPS37D (11726825_at) / RFU C10orf10 (11716522_x_at) / Fold change /veh C10orf10 (11716522_x_at) / RFU KIR2DL2 /// KIR2DL4 /// KIR2DL5A /// KIR2DL5B /// KIR2DS1 /// KIR2DS2 /// KIR2DS3 /// KIR2DS4 /// KIR3DL3 /// KIR3DL3 /// KIR3DS1 (11738374_at) / Fold change /veh KIR2DL2 /// KIR2DL4 /// KIR2DL5A /// KIR2DL5B /// KIR2DS1 /// KIR2DS2 /// KIR2DS3 /// KIR2DS4 /// KIR3DL3 /// KIR3DL3 /// KIR3DS1 (11738374_at) / RFU C1QL1 (11718748_at) / Fold change /veh C1QL1 (11718748_at) / RFU TMPRSS4 (11747572_a_at) / Fold change /veh TMPRSS4 (11747572_a_at) / RFU HAMP (11756126_x_at) / Fold change /veh HAMP (11756126_x_at) / RFU RNFT2 (11725882_a_at) / Fold change /veh RNFT2 (11725882_a_at) / RFU NR4A2 (11747474_a_at) / Fold change /veh NR4A2 (11747474_a_at) / RFU ABCC12 (11746883_a_at) / Fold change /veh ABCC12 (11746883_a_at) / RFU TMEM136 (11760407_x_at) / Fold change /veh TMEM136 (11760407_x_at) / RFU CLDN22 /// WWC2 (11732394_at) / Fold change /veh CLDN22 /// WWC2 (11732394_at) / RFU HLA-DPB1 (11760878_x_at) / Fold change /veh HLA-DPB1 (11760878_x_at) / RFU SPINT1 (11716480_a_at) / Fold change /veh SPINT1 (11716480_a_at) / RFU GAP43 (11754022_s_at) / Fold change /veh GAP43 (11754022_s_at) / RFU A4GNT (11735810_at) / Fold change /veh A4GNT (11735810_at) / RFU PRB3 (11715151_x_at) / Fold change /veh PRB3 (11715151_x_at) / RFU TUBB4B (11761932_at) / Fold change /veh TUBB4B (11761932_at) / RFU CAPN14 (11732068_a_at) / Fold change /veh CAPN14 (11732068_a_at) / RFU TMCC2 (11721928_a_at) / Fold change /veh TMCC2 (11721928_a_at) / RFU IRGQ (11745062_a_at) / Fold change /veh IRGQ (11745062_a_at) / RFU FAM174B (11720279_a_at) / Fold change /veh FAM174B (11720279_a_at) / RFU TMPRSS4 (11748680_a_at) / Fold change /veh TMPRSS4 (11748680_a_at) / RFU FAM212B (11763350_a_at) / Fold change /veh FAM212B (11763350_a_at) / RFU PLEKHG5 (11743358_a_at) / Fold change /veh PLEKHG5 (11743358_a_at) / RFU ZSCAN30 (11745921_a_at) / Fold change /veh ZSCAN30 (11745921_a_at) / RFU CMKLR1 (11741424_a_at) / Fold change /veh CMKLR1 (11741424_a_at) / RFU LOC101060620 /// MAPK8IP1 (11723275_at) / Fold change /veh LOC101060620 /// MAPK8IP1 (11723275_at) / RFU SPTSSB (11747773_x_at) / Fold change /veh SPTSSB (11747773_x_at) / RFU PRSS12 (11739890_at) / Fold change /veh PRSS12 (11739890_at) / RFU BIN1 (11741810_x_at) / Fold change /veh BIN1 (11741810_x_at) / RFU WNT11 (11732464_a_at) / Fold change /veh WNT11 (11732464_a_at) / RFU C10orf10 (11716521_a_at) / Fold change /veh C10orf10 (11716521_a_at) / RFU C5orf56 (11738089_at) / Fold change /veh C5orf56 (11738089_at) / RFU CYB561 (11721691_x_at) / Fold change /veh CYB561 (11721691_x_at) / RFU ANKRD19P (11752326_a_at) / Fold change /veh ANKRD19P (11752326_a_at) / RFU OR2T12 /// OR2T33 /// OR2T8 (11738714_s_at) / Fold change /veh OR2T12 /// OR2T33 /// OR2T8 (11738714_s_at) / RFU VCAN (11748164_a_at) / Fold change /veh VCAN (11748164_a_at) / RFU JSRP1 (11732532_at) / Fold change /veh JSRP1 (11732532_at) / RFU KRTAP10-11 (11738290_x_at) / Fold change /veh KRTAP10-11 (11738290_x_at) / RFU MYO3A (11730013_a_at) / Fold change /veh MYO3A (11730013_a_at) / RFU EBF3 (11725865_a_at) / Fold change /veh EBF3 (11725865_a_at) / RFU CAMK2N1 (11719241_x_at) / Fold change /veh CAMK2N1 (11719241_x_at) / RFU C5orf56 (11738088_a_at) / Fold change /veh C5orf56 (11738088_a_at) / RFU OLFML3 (11715873_a_at) / Fold change /veh OLFML3 (11715873_a_at) / RFU LOC100653217 /// NTM (11731650_a_at) / Fold change /veh LOC100653217 /// NTM (11731650_a_at) / RFU MAPK11 (11762145_a_at) / Fold change /veh MAPK11 (11762145_a_at) / RFU FIZ1 (11724087_x_at) / Fold change /veh FIZ1 (11724087_x_at) / RFU OASL (11726364_x_at) / Fold change /veh OASL (11726364_x_at) / RFU SOX15 (11748057_x_at) / Fold change /veh SOX15 (11748057_x_at) / RFU CD79A (11719716_a_at) / Fold change /veh CD79A (11719716_a_at) / RFU HIST1H1D (11736915_at) / Fold change /veh HIST1H1D (11736915_at) / RFU CASKIN2 (11723855_a_at) / Fold change /veh CASKIN2 (11723855_a_at) / RFU LOC730098 (11760151_x_at) / Fold change /veh LOC730098 (11760151_x_at) / RFU OR4N2 (11742367_at) / Fold change /veh OR4N2 (11742367_at) / RFU PRRT2 (11749266_a_at) / Fold change /veh PRRT2 (11749266_a_at) / RFU SNX32 (11753110_a_at) / Fold change /veh SNX32 (11753110_a_at) / RFU CDHR5 (11726645_a_at) / Fold change /veh CDHR5 (11726645_a_at) / RFU RCAN1 (11760418_a_at) / Fold change /veh RCAN1 (11760418_a_at) / RFU FAM167A (11723789_a_at) / Fold change /veh FAM167A (11723789_a_at) / RFU FAM26E (11764081_at) / Fold change /veh FAM26E (11764081_at) / RFU ISYNA1 (11749810_s_at) / Fold change /veh ISYNA1 (11749810_s_at) / RFU ACY1 (11761880_at) / Fold change /veh ACY1 (11761880_at) / RFU 11764098_at / Fold change /veh 11764098_at / RFU SAMD14 (11745864_x_at) / Fold change /veh SAMD14 (11745864_x_at) / RFU NPB (11741838_a_at) / Fold change /veh NPB (11741838_a_at) / RFU TMPRSS6 (11731388_a_at) / Fold change /veh TMPRSS6 (11731388_a_at) / RFU KRTAP10-2 (11738614_at) / Fold change /veh KRTAP10-2 (11738614_at) / RFU ARHGAP8 /// PRR5-ARHGAP8 (11727945_x_at) / Fold change /veh ARHGAP8 /// PRR5-ARHGAP8 (11727945_x_at) / RFU KRTAP5-7 /// NADSYN1 (11734609_at) / Fold change /veh KRTAP5-7 /// NADSYN1 (11734609_at) / RFU RASL12 (11751679_a_at) / Fold change /veh RASL12 (11751679_a_at) / RFU CDKN2B (11736163_a_at) / Fold change /veh CDKN2B (11736163_a_at) / RFU PRF1 (11729649_at) / Fold change /veh PRF1 (11729649_at) / RFU, ZNF638 /// ZNF638-IT1 / Fold change vs veh, ZNF638 /// ZNF638-IT1 / RFU, PANK3 / Fold change vs veh, PANK3 / RFU, SH3YL1 / Fold change vs veh, SH3YL1 / RFU, ZEB2 / Fold change vs veh, ZEB2 / RFU, NRIP1 / Fold change vs veh, NRIP1 / RFU, PTTG1IP / Fold change vs veh, PTTG1IP / RFU, CAPN2 / Fold change vs veh, CAPN2 / RFU, MED14 / Fold change vs veh, MED14 / RFU, SNORA58 / Fold change vs veh, SNORA58 / RFU, C1orf63 / Fold change vs veh, C1orf63 / RFU, LRRFIP1 / Fold change vs veh, LRRFIP1 / RFU, NDUFAF7 / Fold change vs veh, NDUFAF7 / RFU, SLC12A2 / Fold change vs veh, SLC12A2 / RFU, IBTK / Fold change vs veh, IBTK / RFU, ESF1 / Fold change vs veh, ESF1 / Fold change vs veh, TMEM50B / RFU, TAOK1 / Fold change vs veh, TAOK1 / RFU, ACBD3 / Fold change vs veh, ACBD3 / RFU, TMA16 / Fold change vs veh, TMA16 / RFU, RWDD3 / Fold change vs veh, RWDD3 / RFU, BCAT1 / Fold change vs veh, BCAT1 / RFU, EDEM3 / Fold change vs veh, EDEM3 / RFU, TMEM33 / Fold change vs veh, TMEM33 / RFU, WDR75 / Fold change vs veh, WDR75 / RFU, AHCTF1 / Fold change vs veh, AHCTF1 / RFU, TFRC / Fold change vs veh, TFRC / RFU, ZDHHC17 / Fold change vs veh, ZDHHC17 / RFU, NOM1 / Fold change vs veh, NOM1 / RFU, ARL8B / Fold change vs veh, ARL8B / RFU, ZBTB11 / Fold change vs veh, ZBTB11 / RFU, TAMM41 / Fold change vs veh, TAMM41 / RFU, KIAA1704 /// LOC100996395 / Fold change vs veh, KIAA1704 /// LOC100996395 / RFU, ING1 / Fold change vs veh, ING1 / RFU, TRMT61B / Fold change vs veh, TRMT61B / RFU, FUBP3 / Fold change vs veh, FUBP3 / RFU, TP53 / Fold change vs veh, TP53 / RFU, TNKS2 / Fold change vs veh, TNKS2 / RFU, ZFP14 / Fold change vs veh, ZFP14 / RFU, ACTR2 / Fold change vs veh, ACTR2 / RFU, PPP3R1 / Fold change vs veh, PPP3R1 / RFU, PIK3R1 / Fold change vs veh, PIK3R1 / RFU, HNRNPA1 / Fold change vs veh, HNRNPA1 / RFU, RNF170 / Fold change vs veh, RNF170 / RFU, ZNF28 / Fold change vs veh, ZNF28 / RFU, RNGTT / Fold change vs veh, RNGTT / RFU, OGT / Fold change vs veh, OGT / RFU, BRD1 / Fold change vs veh, BRD1 / RFU, MARS / Fold change vs veh, MARS / RFU, ZNF655 / Fold change vs veh, ZNF655 / RFU, FAHD1 / Fold change vs veh, FAHD1 / RFU, BDP1 / Fold change vs veh, BDP1 / RFU, LRRCC1 / Fold change vs veh, LRRCC1 / RFU, ARID1A / Fold change vs veh, ARID1A / RFU, ZNF146 / Fold change vs veh, ZNF146 / RFU, ZNF330 / Fold change vs veh, ZNF330 / RFU, GPN3 / Fold change vs veh, GPN3 / RFU, C9orf123 / Fold change vs veh, C9orf123 / RFU, N4BP2L2 / Fold change vs veh, N4BP2L2 / RFU, ARFIP1 / Fold change vs veh, ARFIP1 / RFU, FAM179B / Fold change vs veh, FAM179B / RFU, BCL10 / Fold change vs veh, BCL10 / RFU, UHRF1BP1L / Fold change vs veh, UHRF1BP1L / RFU, BET1 / Fold change vs veh, BET1 / RFU, CNOT2 / Fold change vs veh, CNOT2 / RFU, ZNF268 / Fold change vs veh, ZNF268 / Fold change vs veh, ZNF507 / RFU, DGCR2 / Fold change vs veh, DGCR2 / RFU, WDSUB1 / Fold change vs veh, WDSUB1 / Fold change vs veh, HSP90B1 /// MIR3652 / RFU, ADSS / Fold change vs veh, ADSS / RFU, GK / Fold change vs veh, GK / RFU, ZNF148 / Fold change vs veh, ZNF148 / RFU, TAF9 / Fold change vs veh, TAF9 / RFU, SLC1A5 / Fold change vs veh, SLC1A5 / RFU, SLMO2 / Fold change vs veh, SLMO2 / RFU, ABCC4 / Fold change vs veh, ABCC4 / RFU, LOC101060439 /// RAP1B / Fold change vs veh, LOC101060439 /// RAP1B / RFU, RFX7 / Fold change vs veh, RFX7 / RFU, GTPBP10 / Fold change vs veh, GTPBP10 / RFU, CNEP1R1 / Fold change vs veh, CNEP1R1 / RFU, BIVM-ERCC5 /// ERCC5 / Fold change vs veh, BIVM-ERCC5 /// ERCC5 / RFU, ILF3 / Fold change vs veh, ILF3 / RFU 11762660_at / Fold change /veh 11762660_at / RFU VCAN (11757783_s_at) / Fold change /veh VCAN (11757783_s_at) / RFU DDX43 (11728927_at) / Fold change /veh DDX43 (11728927_at) / RFU KRT8 (11758188_x_at) / Fold change /veh KRT8 (11758188_x_at) / RFU NKD1 (11759106_at) / Fold change /veh NKD1 (11759106_at) / RFU SRD5A1 (11742802_a_at) / Fold change /veh SRD5A1 (11742802_a_at) / RFU TPSAB1 /// TPSB2 (11721975_s_at) / Fold change /veh TPSAB1 /// TPSB2 (11721975_s_at) / RFU GSTM3 (11746129_a_at) / Fold change /veh GSTM3 (11746129_a_at) / RFU IL23R (11737362_x_at) / Fold change /veh IL23R (11737362_x_at) / RFU TMEM51 (11727254_a_at) / Fold change /veh TMEM51 (11727254_a_at) / RFU PIWIL2 (11732686_x_at) / Fold change /veh PIWIL2 (11732686_x_at) / RFU ORM1 (11744905_x_at) / Fold change /veh ORM1 (11744905_x_at) / RFU CCDC152 (11743942_at) / Fold change /veh CCDC152 (11743942_at) / RFU ECM1 (11717891_a_at) / Fold change /veh ECM1 (11717891_a_at) / RFU IL23R (11748794_a_at) / Fold change /veh IL23R (11748794_a_at) / RFU TNFAIP8L3 (11732012_x_at) / Fold change /veh TNFAIP8L3 (11732012_x_at) / RFU MBOAT4 (11741988_at) / Fold change /veh MBOAT4 (11741988_at) / RFU 11764193_at / Fold change /veh 11764193_at / RFU TMEM53 (11763286_at) / Fold change /veh TMEM53 (11763286_at) / RFU MAGEB2 (11727129_at) / Fold change /veh MAGEB2 (11727129_at) / RFU TMEM200A (11744735_a_at) / Fold change /veh TMEM200A (11744735_a_at) / RFU CCDC152 (11751479_a_at) / Fold change /veh CCDC152 (11751479_a_at) / RFU FAM211A (11726209_a_at) / Fold change /veh FAM211A (11726209_a_at) / RFU RGS16 (11746705_a_at) / Fold change /veh RGS16 (11746705_a_at) / RFU VCAN (11755009_s_at) / Fold change /veh VCAN (11755009_s_at) / RFU RHOB (11743442_s_at) / Fold change /veh RHOB (11743442_s_at) / RFU RGS16 (11720943_a_at) / Fold change /veh RGS16 (11720943_a_at) / RFU RGS16 (11720944_at) / Fold change /veh RGS16 (11720944_at) / RFU, VPS4B / Fold change vs veh, VPS4B / RFU, CREB1 / Fold change vs veh, CREB1 / RFU, DNAJC13 / Fold change vs veh, DNAJC13 / RFU, GNAQ / Fold change vs veh, GNAQ / RFU, CDK5R1 / Fold change vs veh, CDK5R1 / RFU, ZRANB3 / Fold change vs veh, ZRANB3 / RFU, CUL4A / Fold change vs veh, CUL4A / RFU, CCNY / Fold change vs veh, CCNY / RFU, UFL1 / Fold change vs veh, UFL1 / RFU, COG3 / Fold change vs veh, COG3 / RFU, DIAPH2 / Fold change vs veh, DIAPH2 / RFU, SKA2 / Fold change vs veh, SKA2 / RFU, AFF3 / Fold change vs veh, AFF3 / RFU, LMF1 / Fold change vs veh, LMF1 / RFU, IPO11 / Fold change vs veh, IPO11 / RFU, DFFB / Fold change vs veh, DFFB / RFU, FOXP1 / Fold change vs veh, FOXP1 / RFU, CARD8 / Fold change vs veh, CARD8 / RFU, STRN3 / Fold change vs veh, STRN3 / RFU, ADK / Fold change vs veh, ADK / RFU, RASSF2 / Fold change vs veh, RASSF2 / RFU, WIPF1 / Fold change vs veh, WIPF1 / RFU, LARP1B / Fold change vs veh, LARP1B / RFU, RASA1 / Fold change vs veh, RASA1 / RFU, RB1 / Fold change vs veh, RB1 / RFU, PPFIA1 / Fold change vs veh, PPFIA1 / RFU, MAT2A / Fold change vs veh, MAT2A / RFU, CCT5 / Fold change vs veh, CCT5 / RFU, WDR92 / Fold change vs veh, WDR92 / RFU, CUX1 / Fold change vs veh, CUX1 / RFU, TTC7A / Fold change vs veh, TTC7A / RFU, TMEM135 / Fold change vs veh, TMEM135 / RFU, DEPTOR / Fold change vs veh, DEPTOR / RFU, CPM / Fold change vs veh, CPM / RFU, DNAJB6 / Fold change vs veh, DNAJB6 / RFU, CACNA2D3 / Fold change vs veh, CACNA2D3 / RFU, DTX4 / Fold change vs veh, DTX4 / RFU, TFCP2 / Fold change vs veh, TFCP2 / RFU, GMCL1 /// GMCL1P1 / Fold change vs veh, GMCL1 /// GMCL1P1 / RFU, AEBP2 / Fold change vs veh, AEBP2 / RFU, SNHG1 /// SNORD22 /// SNORD25 /// SNORD26 /// SNORD27 /// SNORD28 /// SNORD29 /// SNORD31 / Fold change vs veh, SNHG1 /// SNORD22 /// SNORD25 /// SNORD26 /// SNORD27 /// SNORD28 /// SNORD29 /// SNORD31 / Fold change (Aza/veh), C12orf56 (ProbeSet 11735607_a_at) / Fold change (ACY-1035/veh), C12orf56 (ProbeSet 11735607_a_at) / Fold change (Aza/veh), FGFR1OP (ProbeSet 11751329_s_at) / Fold change (ACY-1035/veh), FGFR1OP (ProbeSet 11751329_s_at) / Fold change (Aza/veh), VPS36 (ProbeSet 11739960_a_at) / Fold change (ACY-1035/veh), VPS36 (ProbeSet 11739960_a_at) / RFU SYPL1 (11715823_x_at) / Fold change /veh SYPL1 (11715823_x_at) / RFU IGFBP7 (11715501_s_at) / Fold change /veh IGFBP7 (11715501_s_at) / RFU REEP3 (11722064_at) / Fold change /veh REEP3 (11722064_at) / RFU IGLL1 (11728026_x_at) / Fold change /veh IGLL1 (11728026_x_at): dose or concentration left out as unconfirmed", "conditions": "ProbeSet 11717702_a_at; LIST D", "data": [{"smiles": "Nc1ncn([C@@H]2O[C@H](CO)[C@@H](O)[C@H]2O)c(=O)n1", "note": "[azacitidine]", "values": [{"measurement": "RFU, RB1", "result": 184.53, "unit": "RFU"}]}]}
